Consider nine molecules from PubChem BioAssay (NCI).

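48-hour exposure; five concentrations; linearly interpolated endpoints. GI50 is the concentration that inhibits growth by half. TGI: total growth inhibition.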

Test systems include T-47D breast; NCI-H460 lung; LOX IMVI melanoma; OVCAR-8 ovarian; SR leukemia; OVCAR-5 ovarian; MCF7 breast; SK-OV-3 ovarian; MDA-MB-231 breast; RXF 393 renal; PC-3 prostate; BT-549 breast.
Common to all, as to assay: growth of human tumour cells (NCI), 48 h

Take `CC1(C)CCC[C@@]2(C)C1CC[C@@]1(CO1)[C@@H]2/C=C\C(C=O)CC=O` (stereo partly drawn): the TGI in the experiment on T-47D breast is above 100 µM; with NCI-H460 lung it was above 100 µM; in the experiment with LOX IMVI melanoma it was above 100 µM; with OVCAR-8 ovarian it was above 100 µM; in the experiment with SR leukemia it was 99.2 µM; with OVCAR-5 ovarian, above 100 µM. For the same molecule, the TGI in the experiment with MCF7 breast, with SK-OV-3 ovarian, in the experiment with MDA-MB-231 breast, with RXF 393 renal, in the experiment with PC-3 prostate and with BT-549 breast was above 100 µM throughout.
Turning to `CC(C)CC1NC(=O)CCC(NC(=O)C(Cc2ccc(O)cc2)NC(=O)OCc2ccccc2)C(=O)NC(Cc2ccccc2)C(=O)NC(Cc2ccccc2)NC1=O` (stereo not drawn), the TGI in the experiment on T-47D breast, in the experiment on NCI-H460 lung, in the experiment on LOX IMVI melanoma, in the experiment on OVCAR-8 ovarian, in the experiment with SR leukemia and in the experiment with OVCAR-5 ovarian was above 100 µM throughout. In addition, the TGI with MCF7 breast, in the experiment on SK-OV-3 ovarian, in the experiment with MDA-MB-231 breast, in the experiment on RXF 393 renal, in the experiment with PC-3 prostate and with BT-549 breast was above 100 µM in each case.
Turning to `COc1ccc2[nH]c3c(O)c(-c4c(C)cc5c([nH]c6ccc(OC)cc65)c4O)c(C)cc3c2c1`, the TGI with T-47D breast was 13.8 µM; in the experiment on NCI-H460 lung, 7.52 µM; in the experiment on LOX IMVI melanoma, 8.06 µM; with OVCAR-8 ovarian it was 8.39 µM; in the experiment with SR leukemia it was 8.34 µM; in the experiment with OVCAR-5 ovarian it was 7.34 µM. Besides, the TGI in the experiment with MCF7 breast was 8.43 µM; in the experiment on MDA-MB-231 breast it was 10.8 µM; in the experiment with RXF 393 renal, 8.82 µM; in the experiment with PC-3 prostate it was 7.69 µM; in the experiment on BT-549 breast, 8.2 µM. Also, the GI50 with SR leukemia was 3970 nM; with OVCAR-5 ovarian, 3.82 µM; in the experiment with MCF7 breast, 4.49 µM.
In the case of `Cc1ccc(CN2CCN(Cc3ccc(C)o3)C(C)C2)o1` (stereo not drawn), the TGI in the experiment with T-47D breast, in the experiment on NCI-H460 lung, with LOX IMVI melanoma, in the experiment on OVCAR-8 ovarian, in the experiment with SR leukemia and with OVCAR-5 ovarian was above 100 µM in each case. For the same molecule, the TGI in the experiment with MCF7 breast, in the experiment with SK-OV-3 ovarian, in the experiment on MDA-MB-231 breast, in the experiment with RXF 393 renal, in the experiment on PC-3 prostate and with BT-549 breast was above 100 µM each time.
For the molecule `CCN1C/C(=C\c2ccc(Cl)cc2)c2[nH]c(=O)c(C#N)c(-c3ccc(Cl)cc3)c2C1`, the TGI in the experiment on T-47D breast, in the experiment with NCI-H460 lung, in the experiment on LOX IMVI melanoma, in the experiment on SR leukemia, in the experiment with OVCAR-5 ovarian and with MCF7 breast was above 100 µM in each case. Moreover, the TGI with SK-OV-3 ovarian, with MDA-MB-231 breast, in the experiment on RXF 393 renal, in the experiment on PC-3 prostate and in the experiment on BT-549 breast was above 100 µM throughout.
As for `Cc1cc(S(=O)(=O)NC2=NCC(C)(C)CN2)c(S)cc1Cl`, the TGI was above 100 µM in the experiment on T-47D breast; above 100 µM in the experiment with NCI-H460 lung; 31.2 µM in the experiment with LOX IMVI melanoma; 71.8 µM with OVCAR-8 ovarian; above 100 µM in the experiment on SR leukemia; 51.1 µM in the experiment with OVCAR-5 ovarian. Also, the TGI in the experiment with MCF7 breast, with SK-OV-3 ovarian, in the experiment on MDA-MB-231 breast, in the experiment with RXF 393 renal, with PC-3 prostate and with BT-549 breast was above 100 µM each time.
Turning to `Cc1ccc(O)c(C2=NNC(c3cccc(Cl)c3)C2)c1` (stereo not drawn), the TGI in the experiment on T-47D breast, in the experiment on NCI-H460 lung, with LOX IMVI melanoma, in the experiment with OVCAR-8 ovarian, in the experiment on SR leukemia and in the experiment with OVCAR-5 ovarian was above 100 µM each time. Moreover, the TGI was above 100 µM with MCF7 breast; above 100 µM in the experiment on SK-OV-3 ovarian; above 100 µM with MDA-MB-231 breast; 64.6 µM with RXF 393 renal; above 100 µM with PC-3 prostate; above 100 µM in the experiment with BT-549 breast.
With `O=C1NC(N2CCCCC2)=N/C1=C\c1ccco1`, the TGI with T-47D breast, with LOX IMVI melanoma, in the experiment with OVCAR-8 ovarian, in the experiment on SR leukemia, with OVCAR-5 ovarian and in the experiment with MCF7 breast was above 100 µM each time. The TGI in the experiment on SK-OV-3 ovarian, in the experiment with MDA-MB-231 breast, in the experiment with RXF 393 renal, in the experiment with PC-3 prostate and in the experiment with BT-549 breast was above 100 µM each time.
On to `N[C@H]1CCN(c2c(F)cc3c(=O)c(C(=O)O)cn4c3c2Oc2c-4ccc3c2ccc2ccccc23)C1`, for which the TGI in the experiment on T-47D breast is above 100 µM; in the experiment on NCI-H460 lung it was 2.42 µM; with LOX IMVI melanoma, 22.9 µM; with OVCAR-8 ovarian it was above 100 µM; with SR leukemia it was above 100 µM; in the experiment on OVCAR-5 ovarian it was above 100 µM. Further, the TGI with MCF7 breast is above 100 µM; in the experiment with MDA-MB-231 breast, above 100 µM; in the experiment with RXF 393 renal, 16.6 µM; with PC-3 prostate, above 47.3 µM; in the experiment on BT-549 breast it was above 69.3 µM. The GI50 with SR leukemia was 283 nM.
